Like-named read-outs stand apart in the source and are kept apart here.
Biological target: T1, hTLR7 (Homo sapiens, UniProt Q9NYK1)
T1 construct: expressed in transfected cells; host or cells: HEK-Blue hTLR7 reporter cell line
T1 sequence (Q9NYK1 27-1049): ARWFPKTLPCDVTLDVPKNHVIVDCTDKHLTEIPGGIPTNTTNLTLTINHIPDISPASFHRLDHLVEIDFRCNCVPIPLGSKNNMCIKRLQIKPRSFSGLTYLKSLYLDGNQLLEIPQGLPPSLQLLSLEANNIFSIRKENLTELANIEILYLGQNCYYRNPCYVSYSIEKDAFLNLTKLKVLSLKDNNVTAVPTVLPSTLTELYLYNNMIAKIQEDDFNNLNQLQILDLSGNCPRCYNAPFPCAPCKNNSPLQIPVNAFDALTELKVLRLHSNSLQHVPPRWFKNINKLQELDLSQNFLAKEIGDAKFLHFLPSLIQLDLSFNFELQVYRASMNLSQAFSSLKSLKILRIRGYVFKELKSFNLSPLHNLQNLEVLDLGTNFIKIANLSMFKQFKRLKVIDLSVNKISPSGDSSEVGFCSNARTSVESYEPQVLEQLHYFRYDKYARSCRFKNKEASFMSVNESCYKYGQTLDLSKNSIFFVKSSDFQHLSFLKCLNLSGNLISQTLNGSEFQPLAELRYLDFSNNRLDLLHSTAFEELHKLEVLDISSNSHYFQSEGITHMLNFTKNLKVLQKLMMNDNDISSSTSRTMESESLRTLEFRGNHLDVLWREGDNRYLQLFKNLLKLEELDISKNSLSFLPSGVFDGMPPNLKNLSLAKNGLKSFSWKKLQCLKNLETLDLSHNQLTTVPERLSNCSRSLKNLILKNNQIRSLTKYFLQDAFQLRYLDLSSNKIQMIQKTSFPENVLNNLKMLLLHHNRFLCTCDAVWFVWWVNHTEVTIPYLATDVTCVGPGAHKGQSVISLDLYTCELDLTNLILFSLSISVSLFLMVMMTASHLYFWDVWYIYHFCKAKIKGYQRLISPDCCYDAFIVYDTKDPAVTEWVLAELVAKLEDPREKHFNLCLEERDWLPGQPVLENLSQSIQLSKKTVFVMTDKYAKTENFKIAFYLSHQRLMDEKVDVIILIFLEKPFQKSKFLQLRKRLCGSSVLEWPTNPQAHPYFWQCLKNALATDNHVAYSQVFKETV
Assay: HEK-Blue hTLR7 reporter assay (NF-kB-induced SEAP, Quanti-Blue)
Type: cell-based
Procedure: HEK-Blue™ hTLR7 cells were incubated in HEK-Blue™ Detection medium and stimulated with increasing concentrations of TLR7 or TLR8 or TLR7/8 agonists. […] The EC50 was determined from dose-response curve using Prism Software.

[1] = Table 19, TLR7, drug-linkers with PEG shielding, read-out: EC50
[2] = Table 12, TLR7 agonists attached to a linker, read-out: TLR Agonist Payload + Linkers EC50
[3] = Table 15, drug linker, read-out: TLR Agonist + Linker (DL) - EC50
[4] = Table 15, pAF containing final metabolite, read-out: TLR Agonist + Linker + nnAA (DL-pAF) - EC50

`CCCCOc1nc(N)c2[nH]c(=O)n(Cc3ccc(CN4CCC(CCNC(=O)[C@@H](N)Cc5ccc(O)cc5)CC4)cc3)c2n1` [AXC-934, (S)-2-amino-N-(2-(1-(4-((6-amino-2-butoxy-8-oxo-7,8-dihydro-9H-purin-9-yl)methyl)benzyl)piperidin-4-yl)ethyl)-3-(4-hydroxyphenyl)propanamide] gave an EC50 [1] of 10.3 nM.
For `CCCCOc1nc(N)c2[nH]c(=O)n(Cc3ccc(N4CCC(CCNC(=O)CCOCCON)CC4)nc3)c2n1` [AXC-876, N-(2-(1-(5-((6-amino-2-butoxy-8-oxo-7H-purin-9(8H)-yl)methyl)pyridin-2-yl)piperidin-4-yl)ethyl)-3-(2-(aminooxy)ethoxy)propanamide], the EC50 [2] was 362 nM, the EC50 [3] was 362 nM and the EC50 [4] was 245 nM.
For `CCCCOc1nc(N)c2[nH]c(=O)n(Cc3ccc(CN4CCC(CCNC(=O)[C@H](C)NC(=O)CON)CC4)cc3)c2n1` [AXC-896, (S)—N-(2-(1-(4-((6-amino-2-butoxy-8-oxo-7H-purin-9(8H)-yl)methyl)benzyl)piperidin-4-yl)ethyl)-2-(2-(aminooxy)acetamido)propanamide], the EC50 (Table 13, TLR7, read-out: EC50) was 325 nM.
`CCCCCC(=O)Nc1nc(OCCCC)nc2c1[nH]c(=O)n2Cc1ccc(CN2CCC(CCNC(=O)CON)CC2)cc1` [AXC-965, N-(9-(4-((4-(2-(2-(aminooxy)acetamido)ethyl)piperidin-1-yl)methyl)benzyl)-2-butoxy-8-oxo-8,9-dihydro-7H-purin-6-yl)hexanamide] gave an EC50 [1] of 48.3 nM.
`CCc1nc2c(N)nc3ccccc3c2n1CCCCNC(=O)c1ccc(N(C)C)cc1` [AXC-738, N-(4-(4-amino-2-ethyl-1H-imidazo[4,5-c]quinolin-1-yl)butyl)-4-(dimethylamino)benzamide] showed an EC50 (Table 10, read-out: TLR7 EC50) of 11.1 nM.
In the case of `CCCCOc1nc(N)c2[nH]c(=O)n(Cc3ccc(CN4CCC(CCNC(=O)[C@@H](N)CCCNC(=N)N)CC4)cc3)c2n1` [AXC-892, (S)-2-amino-N-(2-(1-(4-((6-amino-2-butoxy-8-oxo-7H-purin-9(8H)-yl)methyl)benzyl)piperidin-4-yl)ethyl)-5-guanidinopentanamide], the EC50 (Table 13, TLR7, read-out: EC50) is reported as 73 nM.
`CCCCOc1nc(N)c2[nH]c(=O)n(Cc3ccc(CN4CCC(CCNC(=O)[C@H](CCCCNC(=O)CCCC(=O)NCCOCCOCCOCCOCCC(=O)NC(COCCC(=O)NCCOCCOCCOCCOCCOCCOCCOCCOC)(COCCC(=O)NCCOCCOCCOCCOCCOCCOCCOCCOC)COCCC(=O)NCCOCCOCCOCCOCCOCCOCCOCCOC)NC(=O)CON)CC4)cc3)c2n1` [AXC-952, (S)—N-(2-(1-(4-((6-amino-2-butoxy-8-oxo-7,8-dihydro-9H-purin-9-yl)methyl)benzyl)piperidin-4-yl)ethyl)-2-(2-(aminooxy)acetamido)-6-(dPEG4-(m-dPEG8)3)hexanamide] gave an EC50 [1] of 1020 nM.
`CCCCOc1nc(N)c2[nH]c(=O)n(Cc3ccc(CN4CCC(CCNC(=O)CCN5C(=O)C=CC5=O)CC4)cc3)c2n1` [AXC-955, N-(2-(1-(4-((6-amino-2-butoxy-8-oxo-7,8-dihydro-9H-purin-9-yl)methyl)benzyl)piperidin-4-yl)ethyl)-3-(2,5-dioxo-2,5-dihydro-1H-pyrrol-1-yl)propanamide] gave an EC50 [1] of 173 nM.
With `CCCCOc1nc(N)c2[nH]c(=O)n(Cc3ccc(CN4CCC(CCNC(=O)[C@H](CCCCNC(=O)CON)NC(=O)CCCc5ccccc5)CC4)cc3)c2n1` [AXC-942, (S)—N-(2-(1-(4-((6-amino-2-butoxy-8-oxo-7,8-dihydro-9H-purin-9-yl)methyl)benzyl)piperidin-4-yl)ethyl)-6-(2-(aminooxy)acetamido)-2-(4-phenylbutanamido)hexanamide] the EC50 [1] was 387 nM.
In the case of `CCCCc1nc2c(N)nc3ccccc3c2n1CCCCNC(=O)c1cc(F)c(NC(=O)[C@H](C)NC(=O)CON)c(F)c1` [AXC-800, (S)—N-(4-(4-amino-2-butyl-1H-imidazo[4,5-c]quinolin-1-yl)butyl)-4-(2-(2-(aminooxy)acetamido)propanamido)-3,5-difluorobenzamide], the EC50 (Table 10, read-out: TLR7 EC50) is reported as greater than 5000 nM.
`CCCCOc1nc(N)c2[nH]c(=O)n(Cc3ccc(CN4CCC(CCNC(=O)[C@H](CCCCNC(=O)CON)NC(=O)CCOCCOCCOCCOCCOCCOCCOCCOCCOCCOCCOCCOC)CC4)cc3)c2n1` [AXC-940, (S)—N-(2-(1-(4-((6-amino-2-butoxy-8-oxo-7,8-dihydro-9H-purin-9-yl)methyl)benzyl)piperidin-4-yl)ethyl)-6-(2-(aminooxy)acetamido)-2-PEG12-amidohexanamide] showed an EC50 [1] of 644 nM.
For `CCCCOc1nc(N)c2[nH]c(=O)n(Cc3ccc(CN4CCC(CCNC(=O)CCC(N)CCC(=O)NCCC5CCN(Cc6ccc(Cn7c(=O)[nH]c8c(N)nc(OCCCC)nc87)cc6)CC5)CC4)cc3)c2n1` [AXC-888, 4-amino-N1,N7-bis(2-(1-(4-((6-amino-2-butoxy-8-oxo-7H-purin-9(8H)-yl)methyl)benzyl)piperidin-4-yl)ethyl)heptanediamide], the EC50 (Table 11, TLR7 activities, read-out: EC50) was 468 nM.
With `CCCCOc1nc(NC(=O)CCOCCOCCOC)c2[nH]c(=O)n(Cc3ccc(CN4CCC(CCNC(=O)CON)CC4)cc3)c2n1` [AXC-983, N-(9-(4-((4-(2-(2-(aminooxy)acetamido)ethyl)piperidin-1-yl)methyl)benzyl)-2-butoxy-8-oxo-8,9-dihydro-7H-purin-6-yl)-3-(2-(2-methoxyethoxy)ethoxy)propanamide] the EC50 [1] was 53.3 nM.
`CCCCOc1nc(N)c2[nH]c(=O)n(Cc3ccc(CN4CCC(CCNC(=O)[C@H](CCCCNC(=O)CCOCCOCCOCCOCCOCCOCCOCCOCCOCCOCCOCCOCCOCCOCCOCCOCCOCCOCCOCCOCCOCCOCCOCCOC)NC(=O)CON)CC4)cc3)c2n1` [AXC-949, (S)—N-(2-(1-(4-((6-amino-2-butoxy-8-oxo-7,8-dihydro-9H-purin-9-yl)methyl)benzyl)piperidin-4-yl)ethyl)-2-(2-(aminooxy)acetamido)-6-PEG24-amidohexanamide] gave an EC50 [1] of 760 nM.
`CCCCOc1cc2c([nH]c(=O)n2Cc2ccc(CN3CCC(CCNC(=O)c4ccc(N)cc4)CC3)cc2)c(N)n1` [AXC-905, 4-amino-N-(2-(1-(4-((4-amino-6-butoxy-2-oxo-2,3-dihydro-1H-imidazo[4,5-c]pyridin-1-yl)methyl)benzyl)piperidin-4-yl)ethyl)benzamidebenzamide] gave an EC50 (Table 14, read-out: TLR7 EC50) of 2.6 nM.
For `CCCCOc1nc(N)c2[nH]c(=O)n(Cc3ccc(CN4CCC(CCNC(=O)[C@@H](N)Cc5ccc(Cn6cc(CON)nn6)cc5)CC4)cc3)c2n1` [AXC-931, (S)-2-amino-N-(2-(1-(4-((6-amino-2-butoxy-8-oxo-7,8-dihydro-9H-purin-9-yl)methyl)benzyl)piperidin-4-yl)ethyl)-3-(4-((4-((aminooxy)methyl)-1H-1,2,3-triazol-1-yl)methyl)phenyl)propanamide], the EC50 [1] was 490 nM.
Work on `CCCCCNc1nc(N)nc2ccn(Cc3cc(CN4CCN(CCCNC(=O)CON)CC4)ccc3OC)c12` [AXC-860, reference compound] yielded an EC50 (Table 14, read-out: TLR7 EC50) of 120 nM.
`CCCCc1nc2c(N)nc3ccccc3c2n1CCCCNC(=O)c1cccc(N)c1` [AXC-803, 3-amino-N-(4-(4-amino-2-butyl-1H-imidazo[4,5-c]quinolin-1-yl)butyl)benzamide] showed an EC50 (Table 10, read-out: TLR7 EC50) of 332 nM.
In the case of `CCCCOc1nc(N)c2[nH]c(=O)n(Cc3ccc(CN4CCC(CCNC(=O)CCOCCON)CC4)cc3)c2n1` [AXC-880, N-(2-(1-(4-((6-amino-2-butoxy-8-oxo-7H-purin-9(8H)-yl)methyl)benzyl)piperidin-4-yl)ethyl)-3-(2-(aminooxy)ethoxy)propenamide], the EC50 [2] is reported as 410 nM, the EC50 [3] is reported as 410 nM and the EC50 [4] is reported as 167 nM.

From patent US20230302150A1, “ANTIBODY-TLR AGONIST CONJUGATES, METHODS AND USES THEREOF” (Ambrx, Inc., priority 2020, published 2023)
